In patent US12583856B2, “Inhibitors of protein kinase A” (Blueprint Medicines Corporation, priority 2021, dated 2026):

How the values were obtained:
[1] = tested on: PKA (phosphorylation of VASP on Serine 157); assay: Cellular potency assay: P-VASP(157) HTRF in Forskolin-stimulated Huh7 cells; assay type: cell-based; conditions: Homo sapiens, Huh-7, 4 hours compound, 5 μM Forskolin 30 minutes, read-out: Phos VASP(S157) IC50
Source text: PKA directly phosphorylate VASP on Serine 157. Phosphorylation of VASP on Serine 157. P-VASP(157) was therefore used as a readout of PKA cellular activity. P-VASP(157) was detected with a HTRF assay, which is based on a TR-FRET sandwich immunoassay-based format comprising two specific anti-VASP antibodies following the manufactors protocol (Cisbio, Catalog No. 63ADK066PEH). PKA was activated in the assay by the addition of Forskolin (Sigma-Aldrich, Catalog No. F3917).
Dose response in Forskolin-stimulated human Huh7 cells was measured as follows. Briefly, Huh7 cells were plated at a density of 2×10^4 cells per well in a 384-well opti-well cell culture plate in 15 μl of serum- and phenol-free Dulbecco's Modified Eagle Medium (DMEM, Gibco Catalog No. 21063-029), and incubated for over night at 37° C., 5% CO2. The next day, 3 μl of a dosed concentration series of test compound (0.24%) DMSO final concentration) was added to the wells, and the cells were incubated for an additional 4 hours at 37° C., 5% CO2. 2 μl of Forskolin was added at a final concentration of 5 μM and the plates were incubated for 30 minutes at 37° C., 5% CO2. 5 μl of lysis buffer containing 1% HALT protease cocktail inhibitors (ThermoFisher, Catalog No. 78430), was added to the cells and the mixture was incubated under gentle shaking for 30 min at room temperature. 10 μl of this lysate was transferred to a 384-well proxi plate and 2.5 μL of the premixed antibody solution was added. An antibody solution was prepared by combining phopho-VASP cryptate antibody and phospho-VASP d2 antibody, at twenty-fold dilution into a buffer solution following the manufactors' protocol. The lysate and antibody mixture was incubated for either 3 h at room temperature or overnight at 4° C. The fluorescence emission at two different wavelengths (665 nm and 620 nm) was read on an EnVision instrument.

[2] = target: T1, PRKACA-DNAJB1 (Homo sapiens, UniProt P17612); assay: PRKACA-DNAJB1 enzyme assay (EZ Reader 2 electrophoretic mobility shift); assay type: biochemical; conditions: read-out: Enz PRKACA-DNAJB1 IC50
T1 construct: DNAJB1 (fusion partner, P25685); the other entry of the earlier key: DNAJB1 (P25685, DnaJ homolog subfamily B member 1)
Procedure: (§1) A Perkin Elmer electrophoretic mobility shift platform (the EZ Reader 2) was used to assess the activity of test compounds against a kinase of interest. Fluorescently labeled substrate peptide was incubated in the presence of kinase, ATP, and the test compound, so that a portion of the peptide was phosphorylated by the enzyme. At the end of the reaction, the mix of phosphorylated (product) and non-phosphorylated (substrate) peptide containing solutions was passed through the microfluidic system of the Perkin Elmer EZ Reader 2 under an applied potential difference. The presence of the phosphate group on the product peptide provided a difference in mass and charge between those of the substrate peptide, resulting in a separation of the substrate and product pools in the sample. As the stopped solutions passed under the instrument's LED light the phosphorylated and un-phosphorylated fluorophore bound peptides were detected and resolved as separate peaks. The ratio between these peaks therefore reflected the test compound's impact on the kinase at that concentration in that well under those conditions.

[3] = target: T2, PRKACA (Homo sapiens, UniProt P17612); assay: PRKACA assay at Km (EZ Reader 2 electrophoretic mobility shift); assay type: biochemical; conditions: 5 μM ATP (Km), 1 μM Kemptide, 90 minutes at 25 C; read-out: Enz PRKACA IC50
T2 construct: purchased Millipore 539482
Procedure: as §1
PRKACA assay at Km: In each well of a 384-well plate, 0.007 ng/ul (0.18 nM) of PRKACA enzyme (Millipore: 539482) was incubated in a total of 12.5 μl of buffer (100 mM HEPES pH 7.5, 0.015% Brij 35, 10 mM MgCl2, 1 mM DTT) with 1 μM Kemptide peptide substrate (5-FAM-LRRASLG) (Anaspec 29933) and 5 μM ATP at 25 C for 90 minutes in the presence or absence of a dosed concentration series of test compounds (1% DMSO final concentration). The reaction was stopped by the addition of 80 μl of Stop buffer (100 mM HEPES pH 7.5, 0.015% Brij 35, 35 mM EDTA and 0.2% of Coating Reagent 3 (Perkin Elmer)). The plate was then read on the EZ Reader 2 (protocol settings: −2.0 psi, upstream voltage −700, downstream voltage −2700, post sample sip 60 seconds). Data was normalized to 0% and 100% inhibition controls and the IC50 calculated using a 4-parameter fit using GraphPad Prism.

SMILES	IC50 [1]	IC50 [2]	IC50 [3]
Cc1c[nH]c2nccc(-c3ccc(C(=O)N[C@@H]4c5c(F)cccc5OC[C@@H]4O)cn3)c12 [Compound 135]	0.01 to 100 nM	≤ 1 nM	≤ 1 nM
O=C(N[C@@H]1c2ccccc2C[C@@H]1CO)c1ccc(-c2ccnc3[nH]ccc23)cc1 (single isomer, unassigned) [Compound 108]	< 50 nM	≤ 1 nM	≤ 1 nM
Cc1c[nH]c2nccc(-c3ccc(C(=O)N[C@@H]4c5ccccc5C[C@H]4O)cc3)c12 [Compound 107, N-[(1R,2R)-2-Hydroxy-2,3-dihydro-1H-inden-1-yl]-4-{3-methyl-1H-pyrrolo[2,3-b]pyridin-4-yl}benzamide]	< 50 nM	≤ 1 nM	≤ 1 nM
O=C(N[C@@H]1c2c(F)cccc2OC[C@@H]1O)c1ccc(-c2ccnc3[nH]ccc23)nc1 [Compound 126, N-[(3R,4R)-5-Fluoro-3-hydroxy-3,4-dihydro-2H-1-benzopyran-4-yl]-6-{1H-pyrrolo[2,3-b]pyridin-4-yl}pyridine-3-carboxamide]	< 50 nM	1.01 to 5 nM	≤ 1 nM
O=C(N[C@@H]1c2ccccc2OC[C@@H]1O)c1ccc(-c2ccnc3[nH]cc(F)c23)cc1 [Compound 123]	< 50 nM	≤ 1 nM	≤ 1 nM
Cc1c[nH]c2nccc(-c3ccc(C(=O)N[C@@H]4c5c(F)cc(C(F)F)cc5OCC4O)cn3)c12 (single isomer, unassigned) [Compound 172]	< 50 nM	≤ 1 nM	≤ 1 nM
O=C(N[C@@H]1c2c(Cl)cccc2OC[C@@H]1O)c1ccc(-c2ccnc3[nH]ccc23)nc1 [Compound 139]	0.01 to 100 nM	1.01 to 5 nM	≤ 1 nM
O=C(N[C@@H]1c2ccccc2C[C@H]1OCCO)c1ccc(-c2ccnc3[nH]ccc23)cc1 [Compound 134, N-[(1R,2R)-2-(2-Hydroxyethoxy)-2,3-dihydro-1H-inden-1-yl]-4-{1H-pyrrolo[2,3-b]pyridin-4-yl}benzamide]	< 50 nM	≤ 1 nM	≤ 1 nM
C[C@@H]1C[C@H](NC(=O)c2ccc(-c3ccnc4[nH]ccc34)cc2)c2ccccc2O1 [Compound 109]	< 50 nM	≤ 1 nM	≤ 1 nM
O=C(N[C@H]1C[C@@H](O)c2cccc(F)c21)c1ccc(-c2ccnc3[nH]ccc23)nc1 (single isomer, unassigned) [Compound 119]	> 100 nM	1.01 to 5 nM	≤ 1 nM
Cc1c[nH]c2nccc(-c3ccc(C(=O)N[C@@H]4c5ccccc5C[C@H]4N4CCCC4)cn3)c12 [Compound 152]	0.01 to 100 nM	1.01 to 5 nM	1.01 to 5 nM
O=C(N[C@H]1CCOc2ccccc21)c1ccc(-c2ccnc3[nH]cc(F)c23)cc1 [Compound 115]	< 50 nM	≤ 1 nM	≤ 1 nM
O=C(N[C@H]1CCOc2cccc(F)c21)c1ccc(-c2ccnc3[nH]cc(F)c23)cc1 [Compound 128]	< 50 nM	≤ 1 nM	≤ 1 nM
Cc1c[nH]c2nccc(-c3ccc(C(=O)N[C@@H]4c5c(F)cc(C(F)F)cc5OCC4O)cn3)c12 (single isomer, unassigned) [Compound 171]	< 50 nM	≤ 1 nM	≤ 1 nM
C[C@H]1Oc2ccc(F)c(F)c2[C@@H](NC(=O)c2ccc(-c3ccnc4[nH]ccc34)nc2)[C@H]1O [Compound 151]	< 50 nM	≤ 1 nM	≤ 1 nM
O=C(N[C@@H]1c2c(F)cccc2C[C@H]1N1CCCC1)c1ccc(-c2ccnc3[nH]ccc23)nc1 [Compound 157, N-[(1R,2R)-7-Fluoro-2-(pyrrolidin-1-yl)-2,3-dihydro-1H-inden-1-yl]-6-{1H-pyrrolo[2,3-b]pyridin-4-yl}pyridine-3-carboxamide]	< 50 nM	≤ 1 nM	≤ 1 nM
O=C(N[C@H]1CCOc2ccc(F)c(F)c21)c1ccc(-c2ccnc3[nH]ccc23)cc1 [Compound 129, N-[(4S)-5,6-Difluoro-3,4-dihydro-2H-1-benzopyran-4-yl]-4-{1H-pyrrolo[2,3-b]pyridin-4-yl}benzamide]	< 50 nM	≤ 1 nM	≤ 1 nM
CO[C@@H]1CCN([C@@H]2Cc3cccc(F)c3[C@H]2NC(=O)c2ccc(-c3ccnc4[nH]ccc34)nc2)C1 [Compound 173]	0.01 to 100 nM	≤ 1 nM	≤ 1 nM
O=C(N[C@@H]1c2c(ccc(F)c2F)C[C@@H]1O)c1ccc(-c2ccnc3[nH]cc(F)c23)nc1 [Compound 146]	0.01 to 100 nM	≤ 1 nM	≤ 1 nM
O=C(N[C@@H]1c2c(Cl)cccc2C[C@H]1N1C[C@@H](F)[C@@H](O)C1)c1ccc(-c2ccnc3[nH]ccc23)nc1 [Compound 186]	< 50 nM	1.01 to 5 nM	≤ 1 nM
O=C(N[C@@H]1c2ccccc2C[C@H]1F)c1ccc(-c2ccnc3[nH]ccc23)cc1 [Compound 104, N-((1R,2R)-2-Fluoro-2,3-dihydro-1H-inden-1-yl)-4-(1H-pyrrolo[2,3-b]pyridin-4-yl)benzamide]	0.01 to 100 nM	≤ 1 nM	≤ 1 nM
O=C(N[C@@H]1c2c(F)cccc2C[C@H]1N1CCCC1)c1ccc(-c2ccnc3[nH]cc(F)c23)nc1 [Compound 169]	< 50 nM	≤ 1 nM	≤ 1 nM
O=C(N[C@@H]1c2c(F)cccc2C[C@H]1N1CC[C@@H](O)C1)c1ccc(-c2ccnc3[nH]ccc23)nc1 [Compound 167]	0.01 to 100 nM	≤ 1 nM	≤ 1 nM
O=C(N[C@H]1CCOc2ccc(F)cc21)c1ccc(-c2ccnc3[nH]ccc23)cc1 [Compound 114]	< 50 nM	≤ 1 nM	≤ 1 nM
O=C(N[C@H]1CCOc2cccc(F)c21)c1ccc(-c2ccnc3[nH]ccc23)nc1 [Compound 117, (S)—N-(5-Fluorochroman-4-yl)-6-(1H-pyrrolo[2,3-b]pyridin-4-yl)nicotinamide]	< 50 nM	≤ 1 nM	≤ 1 nM
C[C@H]1Oc2cccc(F)c2[C@@H](NC(=O)c2ccc(-c3ccnc4[nH]ccc34)nc2)[C@H]1O (single isomer, unassigned) [Compound 136]	0.01 to 100 nM	≤ 1 nM	≤ 1 nM
Cc1c[nH]c2nccc(-c3ccc(C(=O)N[C@H]4CCOc5cccc(F)c54)cn3)c12 [Compound 121, (S)—N-(5-Fluorochroman-4-yl)-6-(3-methyl-1H-pyrrolo[2,3-b]pyridin-4-yl)nicotinamide]	0.01 to 100 nM	1.01 to 5 nM	≤ 1 nM
O=C(N[C@@H]1c2c(F)cc(C(F)F)cc2C[C@H]1N1CC[C@H](F)C1)c1ccc(-c2ccnc3[nH]ccc23)nc1 [Compound 190]	< 50 nM	≤ 1 nM	≤ 1 nM
C[C@@H]1Oc2ccc(F)c(F)c2[C@@H](NC(=O)c2ccc(-c3ccnc4[nH]ccc34)nc2)[C@@H]1O [Compound 150]	< 50 nM	≤ 1 nM	≤ 1 nM
